# Reference: PMC8387461, “T cell receptor recognition of hybrid insulin peptides bound to HLA-DQ8” (Nature Communications, 2021)
# What was measured:
# CD4+ T cell clone A1.9 = assay: T cell stimulation assay, IFNγ ELISA, clone A1.9; assay type: cell-based, human; conditions: primary clone A1.9, APC EBV-KJ, 24 h, 31-mer C-peptide versus 15mer HIP titration
# Procedure: Fig. 2 Comparison of the stimulatory capacity of full-length proinsulin C-peptide and HIP on T1D CD4 + T cell clones. […] Titration of full-length 31-mer C-peptide ([…], (open circles) and 15mer C-peptide-IAPP2 HIP ([…] (filled circles). Antigen presenting cells (APC) were the EBV line, EBV-KJ, (2 × 10^4 cells/well). APC were cultured for 24 h with the same number (2 × 10^4 cells/well) of the primary CD4 + T-cell clone and the peptide concentration indicated. T-cell response to peptide were indicated by secretion of IFNγ which was measured in triplicate by ELISA and reported as pg/ml. Mean and standard deviations of triplicate IFNγ measurements are shown. Results are representative of two experiments for each clone.
# For primary T1D CD4+ T cell clones, cells were thawed and used directly in functional assays. For T cell stimulation assays, cloned CD4+ T cells were incubated with BLCL KJ (; HLA-DQ8 + : HLA-DQA1*03:01, HLA-DQB1*03:02), as APCs, together with synthetic peptides. For the alanine scan experiments, each peptide was added to a final concentration of 10 μM. T cell response to antigen was measured as interferon gamma (IFNγ) secretion into the culture media. The IFNγ concentration in the culture media was determined by ELISA (Biolegend).
# Supplementary Figure 8. […]
# type) at each position P-3 to P12 are shown. IFNγ was measured in triplicate by ELISA, concentrations are shown in pg/ml. […]
# HLA-DQ8 [1] = assay: Size exclusion chromatography, aggregate versus monomer of HLA-DQ8-peptide; assay type: physicochemical, human; conditions: SEC, data not shown
# Source text: The proinsulin C-peptide epitope (PI40-54 […]; predicted binding register in bold) lacks both a preferred acidic residue at P9 and aliphatic residue at P4, whereas HIP ([…]) lacks the preferred P4 residue. […] To overcome this, as undertaken previously with a modified B:11-23 peptide and HLA-DQ8[22], we engineered a construct with a disulfide bond between p11 of the HIP peptide or proinsulin C-peptide and HLA-DQ8α I72C to produce HLA-DQ8αΙ72C-CpepL11C (HLA-DQ8-CpepL11C; […]; predicted binding register in bold, P11Cys in italics) and HLA-DQ8αΙ72C-HIPL11C (HLA-DQ8-HIPL11C; […]; predicted binding register in bold, proinsulin C-peptide derived underlined, IAPP2 derived bold italics and P11Cys italics).
# T cells = conditions: HIP from MHC-II peptidome of pancreatic islets and lymph nodes of NOD mice; cited from earlier work
# T1D3 T cell clone = conditions: cited from earlier work
# Source text: (§1) Yang et al.[39] described a TRBV5-1^+ HLA-DQ8 restricted T cell clone isolated by insulin B:9-23 peptide (B:9-23 […]) tetramer staining. […] The set of mutations comprised P1AtoE, P6CtoA and P9RtoE and P11FtoC ([…]; mutated residues in italics, P1-P9 register in bold)[22],[24],[39]. This engineered epitope was used as a model put forw ...
# HLA-DQ8 [2] = conditions: cited from earlier work
# Source text: as §1
substance,measurement,setting,value
"EAEDLQVGQVELGGGPGAGSLQPLALEGSLQ [proinsulin C-peptide, full-length 31-mer proinsulin C-peptide, reference compound]",response of clone to HIP versus proinsulin C-peptide,CD4+ T cell clone A1.9,responds equally to proinsulin C-peptide or HIP
"GQVELGGGPGAGSLQ [PI40-54, reference compound]",stability of HLA-DQ8 complex (ratio of aggregate versus monomer),HLA-DQ8 [1],unstable HLA-DQ8 binary complexes
LQTLAL–NAARD [proinsulin C-peptide-IAPP2 HIP from NOD mice],T cell autoreactivity,T cells,had T cell autoreactivity
LVEELYLVAGEEGC [engineered insulin B:9-23 peptide],reactivity of / recognition by TRBV5-1+ T1D3,T1D3 T cell clone,recognised by the TRBV5-1^+ T1D3 TCR
SHLVEALYLVCGERG [B:9-23],affinity for HLA-DQ8,HLA-DQ8 [2],poor affinity
same,reactivity of / recognition by TRBV5-1+ T1D3,T1D3 T cell clone,low reactivity
